Reference: patent US8802853B2, “Arylalkenyl and arylalkynyl substituted imidazoquinolines” (3M Innovative Properties Company, priority 2003, dated 2014)
Where a name gives a salt, the structure may show the parent alone.

Row | Structure (SMILES) | melting point
1 | CCc1nc2c(N)nc3ccccc3c2n1CC#Cc1cccnc1 (as salt: hydroiodid) [Example 1, 2-Ethyl-1-[3-(pyridin-3-yl)-2-propynyl]-1H-imidazo[4,5-c]quinolin-4-amine] | 249 to 251 °C (dec.)
2 | CCc1nc2c(N)nc3ccccc3c2n1CC#Cc1cccs1 (as salt: hydroiodid) [Example 2, 2-Ethyl-1-[3-(thien-2-yl)-2-propynyl]-1H-imidazo[4,5-c]quinolin-4-amine] | 185 to 205 °C
3 | CCc1nc2c(N)nc3ccccc3c2n1CC#Cc1ccccc1 (as salt: hydroiodid) [Example 4, 2-Ethyl-1-(3-phenyl-2-propynyl)-1H-imidazo[4,5-c]quinolin-4-amine] | 200 to 212 °C (dec.)
4 | CCc1nc2c(N)nc3ccccc3c2n1CC#Cc1cnccn1 (as salt: hydroiodid) [Example 5, 2-Ethyl-1-[3-(pyrazin-2-yl)-2-propynyl]-1H-imidazo[4,5-c]quinolin-4-amine] | 180 to 225 °C (dec.)
5 | CCOC(=O)c1ccc(C#CCn2c(CC)nc3c(N)nc4ccccc4c32)cc1 [Example 6, Ethyl 4-[3-(4-Amino-2-ethyl-1H-imidazo[4,5-c]quinolin-1-yl)-1-propynyl]benzoate] | 221 to 222 °C (dec.)
6 | CCc1nc2c(N)nc3ccccc3c2n1CC#Cc1cccc(C(F)(F)F)c1 [Example 8, 2-Ethyl-1-[3-(3-trifluoromethylphenyl)-2-propynyl]-1H-imidazo[4,5-c]quinolin-4-amine] | 202.5 to 203.5 °C
7 | CCc1nc2c(N)nc3ccccc3c2n1CC#Cc1ccccc1C(F)(F)F [Example 9, 2-Ethyl-1-[3-(2-trifluoromethylphenyl)-2-propynyl]-1H-imidazo[4,5-c]quinolin-4-amine] | 234 to 235 °C (dec.)
8 | CCc1nc2c(N)nc3ccccc3c2n1CC#Cc1ccc([N+](=O)[O-])cc1 [Example 10, 2-Ethyl-1-[3-(4-nitrophenyl)-2-propynyl]-1H-imidazo[4,5-c]quinolin-4-amine] | 190 to 206 °C
9 | CCc1nc2c(N)nc3ccccc3c2n1CC#Cc1cccc([N+](=O)[O-])c1 [Example 11, 2-Ethyl-1-[3-(3-nitrophenyl)-2-propynyl]-1H-imidazo[4,5-c]quinolin-4-amine] | 224 to 243 °C
10 | CCc1nc2c(N)nc3ccccc3c2n1CCCC#Cc1cccnc1 [Example 13] | 188 to 192 °C
11 | CCc1nc2c(N)nc3ccccc3c2n1CCCC#Cc1cccc(C(F)(F)F)c1 [Example 16, 2-Ethyl-1-[5-(3-trifluoromethylphenyl)-4-pentynyl]-1H-imidazo[4,5-c]quinolin-4-amine] | 178 to 181 °C

Results, then the molecule that gave them:

Row | melting point | Structure (SMILES)
12 | 230 °C | CCc1nc2c(N)nc3ccccc3c2n1CCCC#Cc1ccc(OC)cc1 (as salt: hydroiodid) [Example 14, 2-Ethyl-1-[5-(4-methoxyphenyl)-4-pentynyl]-1H-imidazo[4,5-c]quinolin-4-amine]
13 | 179 to 181 °C | CCc1nc2c(N)nc3ccccc3c2n1CC#Cc1ccc(OC)cc1 [Example 7, 2-Ethyl-1-[3-(4-methoxyphenyl)-2-propynyl]-1H-imidazo[4,5-c]quinolin-4-amine]
14 | 175 to 190 °C (dec.) | CCc1nc2c(N)nc3ccccc3c2n1CCCC#Cc1cccs1 [Example 12, 2-Ethyl-1-[5-(thien-2-yl)-4-pentynyl]-1H-imidazo[4,5-c]quinolin-4-amine]
15 | 199 to 202 °C | CCc1nc2c(N)nc3ccccc3c2n1CCCC#Cc1ccccc1 [Example 15, 2-Ethyl-1-(5-phenyl-4-pentynyl)-1H-imidazo[4,5-c]quinolin-4-amine]
16 | 188 to 190 °C | CCc1nc2c(N)nc3ccccc3c2n1CCC/C=C/c1cccnc1 [Example 17, (E)-2-Ethyl-1-[5-(pyridin-3-yl)-4-pentenyl]-1H-imidazo[4,5-c]quinolin-4-amine]
17 | 179 to 180 °C | CCc1nc2c(N)nc3ccccc3c2n1CCC/C=C/c1ccc(OC)cc1 [Example 18, (E)-2-Ethyl-1-[5-(4-methoxyphenyl)-4-pentenyl]-1H-imidazo[4,5-c]quinolin-4-amine]
